Assay results as given in patent publication US9701556B1, “Compositions, methods, and systems for reducing contamination” (priority 2004, dated 2017).
“And” between values parts separate entries of the source, which are not always exact repeats. Equal entries are not always repeated.

What was measured:
[1] = Comparative treatment of 2,4-D in water, GC analysis; conditions: after four hours
Procedure: A solution containing 1.5 L of distilled water, approximately 0.2 g of sodium bicarbonate, and a small amount of sodium salt of 2,4-D were prepared with magnetic stirring at room temperature in a 2.5 L flask. The dissolved sodium bicarbonate increased the alkalinity of the water somewhat, causing the water to mimic a natural water source. Two hundred fifty milliliters of this solution was distributed into three 500 mL Erlenmeyer flasks.
The flasks were then covered with parafilm and swirled to facilitate mixing of the solution.

[2] = Treatment of contaminated groundwater, BTEX SW 846 8260; conditions: 250 ml groundwater, 1 ml 35% hydrogen peroxide (with or without 1 ml Fe-GLC); untreated 56 ppb; ND = non detectible
[3] = as above; conditions: 250 ml groundwater, 1 ml 35% hydrogen peroxide (with or without 1 ml Fe-GLC); untreated 34 ppb; ND = non detectible
[4] = as above; conditions: 250 ml groundwater, 1 ml 35% hydrogen peroxide (with or without 1 ml Fe-GLC); untreated 171 ppb; ND = non detectible
[5] = as above; conditions: 250 ml groundwater, 1 ml 35% hydrogen peroxide (with or without 1 ml Fe-GLC); untreated 159 ppb; ND = non detectible
[6] = as above; conditions: 250 ml groundwater, 1 ml 35% hydrogen peroxide (with or without 1 ml Fe-GLC); untreated 27 ppb
Fecal Coliform = assay: Disinfection of wastewater, fecal coliform count; assay type: cell-based; conditions: 50 microliters 35% H2O2 (with or without 50 microliters Fe-GLC), after twenty minutes, control 2200
Excerpt: The samples were divided equally into three clean 500 milliliter sample containers from the single sample taken. The first sample served as a control and was set aside. […] Each sample was capped and shaken briefly to mix the contents. After twenty minutes, sub-samples were taken from each vessel and pored into fecal coliform sample containers for analysis at the Hampton Roads Sanitary District lab.

heterotrophic bacteria = assay: Disinfection of wastewater with chelated iron compounds, total heterotrophic bacteria counts; assay type: cell-based; conditions: compared with hydrogen peroxide alone
Procedure: A 10 gallon sample of wastewater from the Massaponax Wastewater Plant was collected and allowed to sit undisturbed for thirty minutes. The clarified supernatant was then pored off of the top of the settled solids within the sample. The supernatant was then mixed and four samples were collected to determine untreated heterotrophic bacteria counts. […] were dissolved in distilled water at 0.4334M. Ferric chloride was added in amounts to achieve saturation of chelant sites on the respective chelants. […] Twenty individual liter samples of supernatant were then decanted from the well-mixed wastewater sample for testing. Four chelated iron products with peroxide were tested at two test concentrations and compared to samples receiving peroxide only and iron chelate only. […] Individual samples were dosed with the respective additives, mixed with a magnetic stir bar and allowed to react for 30 minutes. Samples were then decanted to sterile sample containers containing sodium thiosulfate to stop the oxidation process and preserve the sample. Samples were then placed in a refrigerator until all samples were finished. Samples were packaged in a standard cooler with ice packs and sent via overnite delivery to ProChem Labs in Lynchburg, Va. for analysis for total heterotrophic bacteria counts.

[7] = Treatment of sulfides in municipal wastewater with ferric chelants and hydrogen peroxide
Procedure: The pH was then raised to 7 using sodium hydroxide. Precipitation of iron oxides and/or hydroxides at this pH offered assurance of complete chelation of still soluble iron after 24 hours.
Total sulfides were tested for using Standard Methods 4500-S^2− D with a Hach Chemical Company (of Loveland, Colo.) DR 2000 Spectrophotometer and reagents from Hach specific for this particular test. To keep total sulfides within the range of the test, samples were diluted with distilled water prior to conducting the test as per Hach instructions.
Tests for total sulfide were conducted after 5, 15, and 30 minutes of contact time on each of the seven liter test jars.

OO [H2O2 Only, hydrogen peroxide]
2,4-D concentration ([1]; 250 mL, 200 microliters 50% hydrogen peroxide (with or without 200 microliters Fe-GLC), untreated 130 ppb): 230 ppb
effect on 2,4-D, in words [1]: had no affect
Benzene [2]: 15.1 ppb
Ethylbenzene [3]: 13.0 ppb
Toluene [4]: 55.7 ppb
Xylenes [5]: 67.0 ppb
MtBE [6]: 15.7 ppb
Fecal Coliform (Fecal Coliform): 53 cfu/100 mL
Fecal Coliform (Fecal Coliform; listed as hydrogen peroxide): Fifty three
disinfection effect, in words (heterotrophic bacteria): good disinfectant
sulfide reduction after 15 minutes ([7]; 2.5:1.0 peroxide to sulfide, 105.8 ppm hydrogen peroxide, 20 ppm chelant where added, peroxide alone averaged): 52%
sulfide treatment after 15 minutes ([7]; 37.8 ppm hydrogen peroxide, 12 ppm chelant where added): 42.9%
Percentage of Sulfide Treated, Dose 3 38.7 ppm H2O2 Only ([7]; after 30 minutes, 1.5:1.0 ratio of peroxide to sulfide): 55.5 and 59.0 and 46.5 and 56.3 and 57.0 and 54.7
Percentage of Sulfide Treated, Dose 3 105.8 ppm H2O2 Only ([7]; after 30 minutes, 2.5:1.0 ratio of peroxide to sulfide): 69.0 and 69.5 and 67.8 and 66.4 and 44.4 and 69.3 and 70.2
